Laboratory results published in PMC5320394, “Development of a Novel Formulation That Improves Preclinical Bioavailability of Tenofovir Disoproxil Fumarate” (Journal of Pharmaceutical Sciences, 2017).
Structures can show the parent of a compound that is named as a salt. Where two headings read alike, the source gives them in different places.

How the values were obtained:
Caco-2 cell monolayers = type: in vitro ADME; conditions: Caco-2 A to B, 10 μM, 120 min, no esterase inhibitor, no P-gp inhibitor
Method: (§3) Caco-2 monolayer experiments were performed as previously described[30] with a few modifications. […] Following incubation, the media was replaced to remove dead cells and prevent the formation of multiple layers of cells settling on the filter. Media was then changed every 2-3 days and plates were used in experiments after a total of 21 days from initial seeding. Monolayer integrity was checked before and after each experiment using a Millicell-ERS instrument to determine the TEER across the monolayer and to ensure that there was no substantial change in monolayer integrity throughout the duration of an experiment. On the day of the experiment, the TEER was assessed and the media in each plate was replaced with warm HBSS (pH 7) and allowed to equilibrate (37°C, 30 min). Apical (for apical-to-basolateral [A-to-B] transport) chambers were replaced with HBSS containing 10 μM (final concentration, n = 3 reps) aqueous solution of drug and inhibitors. Samples were taken from both apical and basolateral compartments at 120 min and diluted into an appropriate solvent to allow drug quantitation using LC-MS/MS.
(§4) Samples from permeability assays were also diluted into Mobile Phase A prior to analysis.
(§5) Mobile Phase A was 3/1/96 acetonitrile/acetic acid/water and Mobile Phase B was 96/1/3 acetonitrile/acetic acid/water. Rather than isocratic elution, a gradient program was used. The gradient program held at 0% B for 1 min, ramped to 98% B from 1 to 2 min, held at 98% B from 2 to 3 min, and then returned to initial conditions. Q1/Q3 ions for TFV-ME and TDF were 404.0/270.0 and 520.1/270.0, respectively.

P-gp [1] = assay: MDCK-MDR1 efflux studies; type: in vitro ADME, canine; conditions: dog; for Papp B→A at 120 min, 5 µM: (SEM)
Method: (§1) MDCK-MDR1 cells (Netherlands Cancer Institute) were seeded at a density of 3 × 10^5 cells per well onto microporous polycarbonate membranes in 12-well Costar Transwell plates (Corning, Inc.). The cells were incubated for 3 days during which time they formed confluent monolayers. Monolayer integrity was checked using a Millicell-ERS instrument (Millipore) to determine the transepithelial electrical resistance (TEER) across the monolayer. […] […] Competency of the P-gp efflux transporter was confirmed by assay of propranolol (nonsubstrate) and amprenavir (substrate). Cell monolayers were incubated in triplicate with shaking (160 rpm) at 37°C for 2 h. Samples were removed from the apical and basolateral compartments after incubation and assayed for test compound concentrations by LC-MS/MS.
(§2) Conditions were similar to those used for Caco-2 analyses. Differences included the use of a Phenomenex Synergi Hydro-RP column (4 μm, 2.1 × 50 mm) at 60°C, mobile phases of aqueous 0.2% formic acid (A) and neat methanol (B), and a rapid 0.9 min gradient from 0% to 95% B.

MDCK-MDR1 cells (P-gp) = assay: MDCK-MDR1 efflux studies; type: in vitro ADME, canine; conditions: MDCK-MDR1, 0 μM GF918, 120 min; (SEM)
Method: as §1, §2

[2] = tested on: porcine pancrelipase (PL); assay: Stability in SGF and FaSSIF with and without PL; type: in vitro ADME; conditions: 37°C
Method: Samples were incubated at 37°C and quenched with acetonitrile at 0, 15, 30, 60, 90, and 120 min. For each time point, the % TDF or % TFV-ME remaining was determined by LC-MS/MS as described below.

[3] = design: method as in ref 50 = [50]; 50 Center for Drug Evaluation and Research (2001) Clinical Pharmacology and Pharmaceutics Review Application Number 21-356, page 78 Available at: http://www.accessdata.fda.gov/drugsatfda_docs/nda/2001; conditions: rat, literature, normalized for dose; cited from earlier work
[4] = design: method as in PMID 11557462, PMID 15217303; conditions: humans, cited from earlier work
human intestinal S9 = assay: TDF stability in human intestinal S9 fraction and effect of inhibitors; conditions: human S9 0.5 mg protein/mL, 10 μM TDF, 37°C, Buffer (no inhibitor)
Method: (§6) TDF solutions were prepared at 10 μM in rat or human intestinal S9 fraction (0.5 mg protein/mL). Inhibitors were added to the solutions. […] Control samples included buffer, human S9, or rat S9 solutions with only TDF. Samples were incubated at 37°C for 0, 5, 10, 15, 20, and 30 min and then analyzed by LC-MS/MS for TDF, TFV-ME, TFV, and PP (to quantify stability).
(§7) Samples from S9 incubations were analyzed using the LC-MS/MS conditions described earlier for Caco-2 samples.

[5] = dog, in vivo; cited from earlier work
in vitro [6] = conditions: rat, intestinal S9 fraction
Method: as §6, §7

[7] = design: method as in PMID 9660984; conditions: oral administration of TDF; mice; cited from earlier work
[8] = design: method as in ref 33 = [33]; 33 Arimilli M. Kim C. Bischofberger N. Dougherty J. Synthesis, in vitro biological evaluation and oral bioavailability of prodrugs of the antiretroviral agent 9-[2-(phosphonomethoxy)-propyl] adenine; conditions: cited from earlier work
P-gp [9] = assay: in vitro; type: in vitro ADME; conditions: human, Caco-2, pH 7, with none (CsA 0.00 µM)
Method: as §3, §4, §5

[10] = tested on: Caco-2 cell monolayers (P-gp); assay: in vitro; type: in vitro ADME; conditions: Caco-2, 10 μM TDF, 120 min, no inhibitor (CsA 0.00 µM)
Method: as §3, §4, §5

rat intestinal S9 = assay: TDF stability in rat intestinal S9 fraction and effect of inhibitors; conditions: rat S9 0.5 mg protein/mL, 10 μM TDF, 37°C, Buffer (no inhibitor)
Method: as §6, §7

in vitro [11] = conditions: human, intestinal S9 fraction
Method: as §6, §7

[12] = pH stability of TDF in SGF and FaSSIF; type: physicochemical; conditions: 1 mM TDF
Method: The pH of fasted state simulated intestinal fluid (FaSSIF)[27] was adjusted with 2M NaOH to pH of 6.8, 9, and 11. Simulated gastric fluid (SGF) was used as is at pH 1.2. TDF solutions (100 mM) were prepared in 99% dimethyl sulfoxide. TDF solutions (1 mM) were prepared by 100-fold dilution in FaSSIF and SGF. The pH of the final solution was not measured.
The TDF stability study at pH 1.2 was measured at 37°C in triplicate at 0, 15, 30, 60, 90, and 120 min. The TDF stability studies at pH 6.8, 9, and 11 were measured at 37°C in triplicate at 0, 30, 60, 120, and 240 min. Samples (5 μL) were quenched by diluting 200-fold with 4°C 0.1% formic acid (35% MeOH). These samples were analyzed by liquid chromatography tandem mass spectrometry (LC-MS/MS).

[13] = cited from earlier work
[14] = tested on: porcine pancrelipase (PL); assay: Hydrolysis of TDF by PL and effect of enzyme inhibitors; type: biochemical; conditions: pig, with none, Control, 10 μM TDF, PL, 37°C, no inhibitor, read-out: TDF t1/2
Method: TDF solutions were prepared at 10 μM and incubated in triplicate at 37°C in FaSSIF containing PL at 480 U/mL with and without inhibitors. Inhibitors were added at 10% vol/vol for the oils (sesame, olive, safflower, soybean, and coconut); at 10 mM for PP, MP, and EM1; and at 0.05 mM/0.002 mM for EDTA/PMSF. Controls consisted of TDF in transport media or FaSSIF with and without PL. Samples were incubated at 37°C and quenched with acetonitrile at 10, 15, 20, and 30 min. For each time point, the % TDF or % TFV-ME remaining was determined by LC-MS/MS as described below.

[15] = MDCK-MDR1, with none (0 µM GF918)

Compound: CC(C)OC(=O)OCOP(=O)(CO[C@H](C)Cn1cnc2c(N)ncnc21)OCOC(=O)OC(C)C [TDF, Tenofovir disoproxil fumarate]
- % Measured Basolateral, TDF (median) (Caco-2 cell monolayers): 0.78%
- Papp A→B at 120 min, 5 µM (P-gp [1]; MDCK-MDR1, with GF918 2 µM): 2.25 ×10⁻⁶ cm/s
- efflux ratio at 2 h, 5 µM (P-gp [1]; MDCK-MDR1, with GF918 2 µM): 1.5
- Papp B→A at 120 min, 5 µM (P-gp [1]; MDCK-MDR1, with GF918 2 µM, MDCK-MDR1, 2 μM GF918, 120 min): 3.41 ×10⁻⁶ cm/s
- Papp A→B at 120 min, 5 µM (P-gp [1]; [15]): 0.67 ×10⁻⁶ cm/s
- efflux ratio at 2 h, 5 µM (P-gp [1]; [15]): 44.2
- Papp B→A at 120 min, 5 µM (P-gp [1]; MDCK-MDR1, with none (0 µM GF918), MDCK-MDR1, 0 μM GF918, 120 min): 29.5 ×10⁻⁶ cm/s
- Papp, B to A (MDCK-MDR1 cells (P-gp)): 295.0 (6.1) nm/s
- half-life at 10 µM ([2]; pig, porcine pancrelipase (PL) in FaSSIF, 10 μM, PL 480 U/mL): 2 ± 2.3 min
- stability in SGF and FaSSIF ([2]; without PL, up to 120 min, TDF 10 μM): stable
- AUC [3]: 1490 ng·h/mL
- TDF oral bioavailability following a high fat meal ([4]; after high fat meal): 39%
- oral bioavailability of TFV ([4]; oral administration of TDF): under 30%
- TDF Rate Constant (human intestinal S9): -1.123 min⁻¹
- oral bioavailability of TFV [5]: 30%
- half-life at 10 µM (in vitro [6]): 0.58 ± 1.79 min
- oral bioavailability of TFV [7]: 20%
- half-life ([8]; pH 2.2, 37°C): > 150 h
- half-life ([8]; pH 7.4, 37°C): 8 h
- Papp A→B at 120 min, 10 µM (P-gp [9]; Caco-2, 10 μM TDF, 120 min, no inhibitor (CsA 0.00 µM)): 0.7 ×10⁻⁶ cm/s
- efflux ratio at 120 min, 10 µM (P-gp [9]; read-out: TDF E.R. (efflux ratio)): 12
- Papp B→A at 120 min, 10 µM (P-gp [9]; read-out: TDF Papp, B to A): 8.16 ×10⁻⁶ cm/s
- TDF Papp, A to B [10]: 0.698 ×10⁻⁶ cm/s
- TDF Rate Constant (rat intestinal S9): -1.200 min⁻¹
- half-life at 10 µM (in vitro [11]): 0.62 ± 1.29 min
- half-life at 1 mM ([12]; FaSSIF pH 6.8, 37°C): 16.6 ± 3.4 h
- half-life at 1 mM ([12]; FaSSIF pH 9, 37°C): 2.9 ± 0.2 h
- half-life at 1 mM ([12]; FaSSIF pH 11, 37°C): 0.0567 ± 0.102 h
- half-life at 1 mM ([12]; SGF pH 1.2, 37°C): > 55 h
- pKa [13]: 3.75
- partition coefficient (log P) [13]: 1.25
- Biopharmaceutics Classification System class ([13]; high solubility and low permeability): class 3
- water solubility ([13]; room temperature): 15.3 mg/mL
- half-life at 10 µM ([14]; porcine pancrelipase (PL) in FaSSIF, FaSSIF): 6.35 min
- half-life at 10 µM ([14]; porcine pancrelipase (PL) in transport media, transport media): 7.59 min
